Results reported in patent publication US7776924B2, “Nitroaniline-based alkylating agents and their use as prodrugs” (Auckland Uniservices Limited, priority 2002, dated 2010).
pIC50: −log10 of the molar value. Marks after values point to notes of the source that are not given here.

Key:
Type in all cases: cell-based
WIDR = assay: Cytotoxicity in wild-type (NR−) human colon cell line WIDR
SC3.2 = assay: Cytotoxicity in NTR-transfected (NR+) human ovarian cell line SC3.2; settings: for pIC50: SC3.2 NTR-transfected, 18 h exposure; for Ratio = IC50(NR−)/IC50(NR+) Human Ovarian: SKOV3 / SC3.2, 18 h exposure
WC14.10 = assay: Cytotoxicity in NTR-transfected (NR+) human colon cell line WC14.10; settings: for pIC50: WC14.10 NTR-transfected
SKOV3 = assay: Cytotoxicity in wild-type (NR−) human ovarian cell line SKOV3
[1] = system: A549 human lung carcinoma cells; assay: Cytotoxicity in oxic and anoxic wild-type A549 human lung carcinoma cells; settings: 4 h exposure; for pIC50: anoxic, read-out: IC50 WT anoxic
[2] = system: A549 transfected with human cytochrome P450 reductase (P450R); assay: Cytotoxicity in oxic and anoxic A549 cells transfected with human cytochrome P450 reductase; settings: 4 h exposure; for pIC50: anoxic

SMILES	pIC50 (WIDR; 18 h exposure)	pIC50 (SC3.2)	Ratio = IC50(NR−)/IC50(NR+) Human Ovarian (SC3.2)	pIC50 (WC14.10; 18 h exposure)	Ratio = IC50(NR−)/IC50(NR+) Human colon (WC14.10; WIDR / WC14.10, 18 h exposure)	pIC50 (SKOV3; 18 h exposure)	WT Ratio = IC50(aerobic)/IC50(anoxic) [1]	pIC50 [1]	P450R ratio = IC50(aerobic)/IC50(anoxic) [2]	pIC50 [2]	pIC50 (WIDR; 4 h exposure)	pIC50 (WC14.10; 4 h exposure)	Ratio = IC50(NR−)/IC50(NR+) Human colon (WC14.10; WIDR / WC14.10, 4 h exposure)	pIC50 (WIDR; Homo sapiens, 18 h exposure)	pIC50 (SC3.2; Homo sapiens)	pIC50 (WC14.10; Homo sapiens, 18 h exposure)	pIC50 (SKOV3; Homo sapiens, SK-OV-3, 18 h exposure)
CS(=O)(=O)OCCN(CCBr)c1c([N+](=O)[O-])ccc(C(=O)NCCCO)c1[N+](=O)[O-] [IIc5, 2-((2-Bromoethyl)-3-{[(3-hydroxypropyl)amino]carbonyl}-2,6-dinitroanilino)ethyl methanesulfonate]	3.68	6.24	497	6.07	301	3.55	30	4.28	134	5.35	–	–	–	–	–	–	–
CS(=O)(=O)OCCN(CCBr)c1c([N+](=O)[O-])ccc(C(=O)NCCCCO)c1[N+](=O)[O-] [IIc6, 2-((2-Bromoethyl)-3-{[(4-hydroxybutyl)amino]carbonyl}-2,6-dinitroanilino)ethyl methanesulfonate]	–	–	–	–	–	–	–	–	–	–	3.50	4.70	16^f	–	–	–	–
CS(=O)(=O)OCCN(CCBr)c1ccc([N+](=O)[O-])c(C(=O)NCCCN2CCOCC2)c1[N+](=O)[O-] [IIc10, 2-[(2-Bromoethyl)-3-({[3-(4-morpholinyl)propyl]amino}carbonyl)-2,4-dinitroanilino]ethyl methanesulfonate]	4.03	4.96	14	4.96	8.2	3.81	–	–	–	–	–	–	–	–	–	–	–
CS(=O)(=O)OCCN(CCI)c1cc(C(N)=O)c([N+](=O)[O-])cc1[N+](=O)[O-] [IIa4, 2-[5-(Aminocarbonyl)(2-iodoethyl)-2,4-dinitroanilino]ethyl methanesulfonate]	4.15	6.48	311	6.39	172	4.01	–	–	–	–	–	–	–	–	–	–	–
CS(=O)(=O)OCCN(CCCl)c1ccc([N+](=O)[O-])c(C(=O)NCC(O)CO)c1[N+](=O)[O-] (centres unmarked) [IIc7, 2-((2-Chloroethyl)-3-{[(2,3-dihydroxypropyl)amino]carbonyl}-2,4-dinitroanilino)ethyl methanesulfonate]	3.07	5.18	267	5.37	262	2.77	–	–	–	–	–	–	–	–	–	–	–
CS(=O)(=O)OCCN(CCBr)c1c(C(=O)NCC(O)CO)cc([N+](=O)[O-])cc1[N+](=O)[O-] (centres unmarked) [IIb6, 2-((2-Bromoethyl)-2-{[(2,3-dihydroxypropyl)amino]carbonyl}-4,6-dinitroanilino)ethyl methanesulfonate]	4.96	6.72	140	6.68	52	4.59	–	–	–	–	–	–	–	–	–	–	–
CS(=O)(=O)OCCN(CCBr)c1c([N+](=O)[O-])ccc(C(=O)NCCO)c1[N+](=O)[O-] [IIc3, 2-((2-Bromoethyl)-3-{[(2-hydroxyethyl)amino]carbonyl}-2,6-dinitroanilino)ethyl methanesulfonate]	–	–	–	–	–	–	20	4.55	146	5.54	3.37	5.29	83^f	–	–	–	–
CS(=O)(=O)OCCN(CCCl)c1ccc([N+](=O)[O-])c(C(N)=O)c1[N+](=O)[O-] [IIc1, 2-[3-(Aminocarbonyl)(2-chloroethyl)-2,4-dinitroanilino]ethyl methanesulfonate]	3.92	6.26	390	6.00	120	3.71	–	–	–	–	–	–	–	–	–	–	–
CS(=O)(=O)OCCN(CCBr)c1c(C(N)=O)cc([N+](=O)[O-])cc1[N+](=O)[O-] [IIb2, 2-[2-(Aminocarbonyl)(2-bromoethyl)-4,6-dinitroanilino]ethyl methanesulfonate]	5.37	8.15	762	7.70	227	5.22	–	–	–	–	–	–	–	–	–	–	–
NC(=O)c1cc(N(CCCl)CCBr)c([N+](=O)[O-])cc1[N+](=O)[O-] [IIa2, 5-[(2-Bromoethyl)(2-chloroethyl)amino]-2,4-dinitrobenzamide]	–	–	280	–	235	–	–	–	–	–	–	–	–	3.82	6.08	6.16	3.65
